Columns and labels:
UK114 = target: T1, UK114 (Capra hircus, UniProt P80601); assay: decrease of semicarbazone formation rate, […] nm, imino acid generated in situ; type: biochemical; details: 50 mM sodium pyrophosphate pH 8.7, 25 °C, 10 mM semicarbazide, catalase
T1 construct: gene RIDA; full length 137 residues, recombinant from E. coli (pET-15b), N-terminal His-tag cut by thrombin leaving GSH before Met1; homotrimer
T1 sequence (P80601 1-137): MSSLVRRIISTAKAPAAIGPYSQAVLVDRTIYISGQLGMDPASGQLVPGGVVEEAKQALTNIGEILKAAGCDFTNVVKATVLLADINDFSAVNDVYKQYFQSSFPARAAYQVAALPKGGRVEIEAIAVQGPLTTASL

[1] = target: T2, D-amino acid oxidase (DAAO) (Sus scrofa, UniProt P00371); assay: H2O2 production (HRP / o-dianisidine) and semicarbazone formation; type: biochemical; details: 50 mM sodium pyrophosphate pH 8.7, 25 °C
T2 construct: gene DAO; native, purified from pig kidneys
T2 sequence (P00371 whole entry): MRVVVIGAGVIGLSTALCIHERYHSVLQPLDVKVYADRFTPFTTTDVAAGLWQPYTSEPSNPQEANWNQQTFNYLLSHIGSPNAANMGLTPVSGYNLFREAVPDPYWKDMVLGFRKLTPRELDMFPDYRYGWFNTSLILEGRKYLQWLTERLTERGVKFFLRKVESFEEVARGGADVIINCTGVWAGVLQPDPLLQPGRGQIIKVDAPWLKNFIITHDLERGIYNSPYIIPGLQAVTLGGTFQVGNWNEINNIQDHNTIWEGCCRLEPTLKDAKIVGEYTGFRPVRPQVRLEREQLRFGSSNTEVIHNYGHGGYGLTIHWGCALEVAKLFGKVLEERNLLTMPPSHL

[2] = target: the molecule itself; assay: SEC; analytical gel filtration on a calibrated Superdex 75 (10/30) column equilibrated with 0.9% NaCl; standards BSA dimer, BSA monomer, carbonic anhydrase, cytochrome c

Which “decrease of semicarbazone formation rate, 248 nm, imino acid generated in situ” value (UK114; imino acid from 5 mM L-Ala + LAAO or D-Ala + DAAO) does the source give for CC(=N)C(=O)O [2-iminopropionate] here?
The value was “the highest specificity is indeed observed with 2-iminopyruvate (2-iminopropionate)”.

How did the “H2O2 production (HRP / o-dianisidine) and semicarbazone formation” value [1] turn out when CC(C)C[C@@H](N)C(=O)O [D-Leu] was run?
Its value is “Semicarbazone formation was observed using D-Ala, D-Leu, but not D-Ser, D-Thr, or D-Lys”.

Which “decrease of semicarbazone formation rate, 248 nm, imino acid generated in situ” value (UK114; imino acid from 5 mM L-Leu + LAAO or D-Leu + DAAO) does the source give for CC(C)CC(=N)C(=O)O [imino acid derived from Leu] here?
Its value is “UK114 activity using the imino acid produced by DAAO from D-Leu was indistinguishable”.

B1: recombinant goat UK114 (Capra hircus), thrombin-cleaved (enzyme, Capra hircus (goat))
chain: GSHMSSLVRRIISTAKAPAAIGPYSQAVLVDRTIYISGQLGMDPASGQLVPGGVVEEAKQALTNIGEILKAAGCDFTNVVKATVLLADINDFSAVNDVYKQYFQSSFPARAAYQVAALPKGGRVEIEAIAVQGPLTTASL
notes: they precede the initiator methionine of UK114; also called RidA; not shown: His6, N-terminal, cleaved
For B1, which “stoichiometry N” value [2] is on record?
Its value is 3.
